Earlier results as cited in patent publication US5431925A, “Nutritive composition for prevention and therapy of infection diseases caused by immunosuppression” (Snow Brand Milk Products Co., Ltd., priority 1991, dated 1995).

Details: mouse

Row | Compound | LD50
1 | CC1=C(/C=C/C(C)=C/C=C/C(C)=C/CO)C(C)(C)CCC1 [retinol] | ≥ 4,100 mg/kg
2 | CC1=C(/C=C/C(C)=C/C=C/C(C)=C/C(=O)O)C(C)(C)CCC1 [retinoic acid] | ≥ 4,000 mg/kg
